Data set [1] has as its target human sEH (Homo sapiens (Human), UniProt P34913). Kind of data set: Inhibition of human soluble epoxide hydrolase (IC50; one of three substrate methods).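 Further: enzyme expressed in baculovirus and affinity-purified, assays run in triplicate, with substrate and read-out differing among the three methods.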 Format: biochemical.
The nature of data set [2]: Pharmacokinetic screening in dogs, oral administration, plasma LC-MS/MS. The conditions noted are these: for AUC: dog, plasma, po, 0.3 mg/kg; for AUCINF_D_pred / LC/MS analysis, plasma level at time 0 / LC/MS analysis, plasma level at time 15 / LC/MS analysis, plasma level at time 30 / LC/MS analysis, plasma level at time 60 / LC/MS analysis, plasma level at time 120 / LC/MS analysis, plasma level at time 180 / LC/MS analysis, plasma level at time 240 / LC/MS analysis, plasma level at time 300 / LC/MS analysis, plasma level at time 360 / LC/MS analysis, plasma level at time 480 / LC/MS analysis, plasma level at time 1440: dogs; for AUCINF_D_pred: oral, dose-normalised; for LC/MS analysis, plasma level at time 0 / LC/MS analysis, plasma level at time 15 / LC/MS analysis, plasma level at time 30 / LC/MS analysis, plasma level at time 60 / LC/MS analysis, plasma level at time 120 / LC/MS analysis, plasma level at time 180 / LC/MS analysis, plasma level at time 240 / LC/MS analysis, plasma level at time 300 / LC/MS analysis, plasma level at time 360 / LC/MS analysis, plasma level at time 480 / LC/MS analysis, plasma level at time 1440: single oral dose (0.3 mg/kg per FIG. 1); for LC/MS analysis, plasma level at time 0: time 0 min; for LC/MS analysis, plasma level at time 15: time 15 min; for LC/MS analysis, plasma level at time 30: time 30 min; for LC/MS analysis, plasma level at time 60: time 60 min; for LC/MS analysis, plasma level at time 120: time 120 min; for LC/MS analysis, plasma level at time 180: time 180 min; for LC/MS analysis, plasma level at time 240: time 240 min; for LC/MS analysis, plasma level at time 300: time 300 min; for LC/MS analysis, plasma level at time 360: time 360 min; for LC/MS analysis, plasma level at time 480: time 480 min; for LC/MS analysis, plasma level at time 1440: time 1440 min.

Data set [3] in a line: Solubility in oil of the dosing preparation (compound in Crisco). Conditions: appearance in oil, in parentheses after compound number. Format: physicochemical. The text has this:
The dogs are fed immediately thereafter.

Four compounds from patent publication US8501783B2, “Conformationally restricted urea inhibitors of soluble epoxide hydrolase” (The Regents of the University of California, priority 2006, dated 2013) can be followed below.

Usually IC50 stands for the concentration at which inhibition is half-maximal. By AUC is commonly meant concentration integrated over time. Lower therefore signals low exposure.

Values joined by “and” are separate entries in the source; they are usually repeats but may differ in a detail not shown here. Equal values may be shown once. Read-outs that look alike come from different tables or passages of the source.

Sequence of human sEH (P34913 whole entry): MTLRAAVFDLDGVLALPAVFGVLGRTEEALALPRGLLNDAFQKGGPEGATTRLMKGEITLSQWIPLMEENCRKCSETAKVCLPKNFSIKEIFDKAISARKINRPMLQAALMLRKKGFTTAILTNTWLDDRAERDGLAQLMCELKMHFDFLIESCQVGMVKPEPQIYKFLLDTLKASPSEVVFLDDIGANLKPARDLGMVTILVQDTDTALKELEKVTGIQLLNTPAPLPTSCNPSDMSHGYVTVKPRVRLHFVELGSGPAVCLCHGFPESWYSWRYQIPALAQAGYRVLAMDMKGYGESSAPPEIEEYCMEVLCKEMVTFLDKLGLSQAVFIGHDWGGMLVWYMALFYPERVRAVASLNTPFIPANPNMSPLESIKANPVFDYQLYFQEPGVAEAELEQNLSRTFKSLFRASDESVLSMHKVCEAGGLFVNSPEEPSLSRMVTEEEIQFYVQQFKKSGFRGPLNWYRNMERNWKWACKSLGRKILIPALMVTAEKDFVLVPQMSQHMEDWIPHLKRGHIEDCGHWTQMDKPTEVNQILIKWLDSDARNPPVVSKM

`CCCC(=O)N1CCC(NC(=O)NC23CC4CC(CC(C4)C2)C3)CC1` [Compound 1157, N-(1-butyrylpiperidin-4-yl)-N′-(adamant-1-yl)urea]: the IC50 in data set [1] was 2.6 nM and 2.64 nM. In data set [2], the AUC is 0.0367 µM·h; the “AUCINF_D_pred” value was 7187 kg·nM·min/mg; the “LC/MS analysis, plasma level at time 0” value worked out at 0.00; the “LC/MS analysis, plasma level at time 15” value came to 0.58. In data set [2], the “LC/MS analysis, plasma level at time 30” value came to 5.18; the “LC/MS analysis, plasma level at time 60” value is given as 7.77; the “LC/MS analysis, plasma level at time 120” value turned out to be 9.50; the “LC/MS analysis, plasma level at time 180” value was 7.05. In addition, in data set [2], the “LC/MS analysis, plasma level at time 240” value stood at 4.60; the “LC/MS analysis, plasma level at time 300” value came out at 2.45; the “LC/MS analysis, plasma level at time 360” value came to 2.45; the “LC/MS analysis, plasma level at time 480” value came out at 0.86. Further, the “LC/MS analysis, plasma level at time 1440” value in data set [2] turned out to be 0.00. In data set [3], the solubility in oil is 1157 (Opaque).
In the case of `COC(=O)CCCC(=O)N1CCC(NC(=O)NC23CC4CC(CC(C4)C2)C3)CC1` [Compound 1206, 5-[4-(3-Adamantan-1-yl-ureido)-piperidin-1-yl]-5-oxo-pentanoic acid methyl ester], the IC50 in data set [1] (recombinant human sEH) stood at 2.7 nM. Besides, in data set [2], the “LC/MS analysis, plasma level at time 0” value was found to be 0.00; the “LC/MS analysis, plasma level at time 15” value was 0.00; the “LC/MS analysis, plasma level at time 30” value was found to be 0.00; the “LC/MS analysis, plasma level at time 60” value worked out at 0.00. Besides, in data set [2], the “LC/MS analysis, plasma level at time 120” value is reported as 0.00; the “LC/MS analysis, plasma level at time 180” value is 0.00; the “LC/MS analysis, plasma level at time 240” value amounted to 0.00; the “LC/MS analysis, plasma level at time 300” value amounted to 0.00. Moreover, in data set [2], the “LC/MS analysis, plasma level at time 360” value worked out at 0.00; the “LC/MS analysis, plasma level at time 480” value is on record as 0.00; the “LC/MS analysis, plasma level at time 1440” value was 0.00. Moreover, the solubility in oil in data set [3] is listed as 1206 (Opaque).
Regarding `O=C(NC1CCN(C(=O)c2ccccn2)CC1)NC12CC3CC(CC(C3)C1)C2` [Compound 1201, N-(1-(Pyridine-2-carbonyl)piperidin-4-yl)-N′-(adamant-1-yl)urea], in data set [1] (recombinant human sEH), the IC50 came out at 1.2 nM. In addition, in data set [2], the AUC was 0.08 µM·h; the “AUCINF_D_pred” value came to 16100 kg·nM·min/mg; the “LC/MS analysis, plasma level at time 0” value turned out to be 0.00; the “LC/MS analysis, plasma level at time 15” value is reported as 9.19. In data set [2], the “LC/MS analysis, plasma level at time 30” value came out at 32.65; the “LC/MS analysis, plasma level at time 60” value is given as 42.48; the “LC/MS analysis, plasma level at time 120” value is listed as 21.09; the “LC/MS analysis, plasma level at time 180” value is listed as 7.15. For the same compound, in data set [2], the “LC/MS analysis, plasma level at time 240” value turned out to be 3.16; the “LC/MS analysis, plasma level at time 300” value was 1.72; the “LC/MS analysis, plasma level at time 360” value is 0.00; the “LC/MS analysis, plasma level at time 480” value is 0.00. In addition, the “LC/MS analysis, plasma level at time 1440” value in data set [2] amounted to 0.00. Also, in data set [3], the solubility in oil is given as 1201 (Suspension).
For the compound `O=C(NCC1CCN(C(=O)c2ccccc2)CC1)NC12CC3CC(CC(C3)C1)C2` [Compound 1121, N-((1-benzoylpiperidin-4-yl)methyl)-N′-(adamant-1-yl)urea], the IC50 in data set [1] (recombinant human sEH) is 3.2 nM. Moreover, in data set [2], the “LC/MS analysis, plasma level at time 0” value amounted to 0.00; the “LC/MS analysis, plasma level at time 15” value is 4.86; the “LC/MS analysis, plasma level at time 30” value is 3.81; the “LC/MS analysis, plasma level at time 60” value was found to be 1.98. In addition, in data set [2], the “LC/MS analysis, plasma level at time 120” value was 0.42; the “LC/MS analysis, plasma level at time 180” value stood at 0.16; the “LC/MS analysis, plasma level at time 240” value was found to be 0.06; the “LC/MS analysis, plasma level at time 300” value worked out at 0.05. For the same compound, in data set [2], the “LC/MS analysis, plasma level at time 360” value was determined as 0.03; the “LC/MS analysis, plasma level at time 480” value is given as 0.03; the “LC/MS analysis, plasma level at time 1440” value was found to be 0.04. Moreover, in data set [3], the solubility in oil is recorded as 1121 (Not dissolved).
